Source: US6677328B1, “Method for the prevention of colonic adenomas” (priority 1995, dated 2004)

Experiments:
Format in all cases: in vivo, Male Fischer 344 rats
[1] = test system: azoxymethane-induced colon neoplasms in Fischer 344 rats; experiment: Azoxymethane-induced colon tumors in rats on supplemented AIN-76 diet (Example 1); settings: for Tumor bearing rats, total, number / Tumor bearing rats, benign (adenoma), number / Tumor bearing rats, benign (adenoma), {%} / Tumor bearing rats, malignant (cancers), number / Tumor bearing rats, malignant (cancers), {%} / Tumor bearing rats, total, {%}: azoxymethane 15 mg/kg s.c., sacrifice after 28 weeks
Method: (§1) The control group diet is not supplemented at all. After 2 weeks, half of the rats in each group receive azoxymethane (15 mg/kg) or azoxymethane vehicle subcutaneously once a week for two weeks. […] After 28 weeks, the rats are sacrificed, the colons harvested and examined for neoplasms. None of the rats injected with azoxymethane vehicle develop tumors. Since it is believed that malignancies develop from adenomas, the total tumor bearing rat values are particularly enlightening as this represents the number of growths that are still in the adenoma stage and the number of growths that have continued to progress to cancers. Ursodiol reduced the number of growths from control by 50%, with a 100% reduction in those that progressed to cancers and a 33% reduction in the number of tumors that still remained as adenomas.

[2] = test system: azoxymethane-induced colon neoplasms in Fischer 344 rats; experiment: Azoxymethane rat model, incidence of microadenomas, adenomas and cancers (Example 2); parameters: Tumor bearing rats, benign (microadenoma) / Tumor bearing rats, benign (adenoma) / Tumor bearing rats, malignant (cancers) / Tumor bearing rats, total: unit not given here; settings: for Tumor bearing rats, total / Tumor bearing rats, benign (adenoma) / Tumor bearing rats, benign (microadenoma) / Tumor bearing rats, malignant (cancers): azoxymethane model as Example 1
Method: as §1
The procedure of Example 1 was followed except that the number of rats involved are as stated in the table below and aberrant crypt frequency was examined upon sacrifice of the rats. The incidence of microadenomas, adenomas, and cancers in the tested populations was recorded and appears in the table below.

[3] = test system: azoxymethane-induced colon neoplasms in Fischer 344 rats; experiment: Azoxymethane rat model, 7 diets, two study centers (Example 3)
Method: The control group diet is not supplemented at all. After 2 weeks, half of the rats in each group receive azoxymethane (15 mg/kg) or azoxymethane vehicle subcutaneously once a week for two weeks. […] After 28 weeks, the rats are sacrificed, the colons harvested and examined for neoplasms.

[4] = Study Center 2, standard diet + 0.2%
[5] = Study Center 2, standard diet + 0.4%
[6] = Study center 1, standard diet + 0.2%
[7] = Study center 1, standard diet + 0.4%
[8] = piroxicam diet, level not given
[9] = Study Center 2, standard diet + Piroxicam, level not given
[10] = Study center 1, standard diet + Piroxicam, level not given

Structure (SMILES) | Tumor bearing rats, benign (adenoma), number ([1]; diet supplement 0.4%) | Tumor bearing rats, benign (adenoma), {%} ([1]; diet supplement 0.4%) [%] | Tumor bearing rats, malignant (cancers), number ([1]; diet supplement 0.4%) | Tumor bearing rats, malignant (cancers), {%} ([1]; diet supplement 0.4%) | Tumor bearing rats, total, {%} ([1]; diet supplement 0.4%) [%] | Tumor bearing rats, benign (adenoma) ([2]; diet supplement 0.4%) | Tumor bearing rats, benign (microadenoma) ([2]; diet supplement 0.4%) | Tumor bearing rats, malignant (cancers) ([2]; diet supplement 0.4%) | Tumor bearing rats, benign [3, 4] | Tumor bearing rats, malignant [3, 4] | Tumor bearing rats, total [3, 4] | Tumor bearing rats, benign [3, 5] | Tumor bearing rats, malignant [3, 5] | Tumor bearing rats, total [3, 5] | Tumor bearing rats, benign [3, 6] | Tumor bearing rats, malignant [3, 6] | Tumor bearing rats, total [3, 6] | Tumor bearing rats, benign [3, 7] | Tumor bearing rats, malignant [3, 7] | Tumor bearing rats, total [3, 7] | other results
C[C@H](CCC(=O)O)[C@H]1CC[C@H]2[C@@H]3[C@H](O)C[C@@H]4C[C@H](O)CC[C@]4(C)[C@H]3C[C@H](O)[C@]12C [Cholic Acid, Cholic acid] | 20 | 43 | 14 | 30% | 73 | 71 | 57 | 38 | 6 | 8 | 14 | 8 | 9 | 17 | 12 | 4 | 16 | 12 | 5 | 17 | Effect on number of adenomas present ([1]; 0.4% in diet, in words): increased the number of adenomas which were present; Effect on number of malignancies over control ([1]; 0.4% in diet, in words): increased the number of malignancies over control; Tumor bearing rats, total, number ([1]; control, diet not supplemented): 34; Tumor bearing rats, total [2]: 166
CN1C(C(=O)Nc2ccccn2)=C(O)c2ccccc2S1(=O)=O [Piroxicam] |  |  |  |  |  |  |  |  |  |  |  |  |  |  |  |  |  |  |  |  | Effect on adenomas and malignancies ([1]; 75 ppm in diet, in words, compared with ursodiol): reduced both adenomas and malignancies, but neither was reduced as dramatically as seen with ursodiol administration; Tumor bearing rats, benign (adenoma), number ([1]; diet supplement 75 ppm): 16; Tumor bearing rats, benign (adenoma), {%} ([1]; diet supplement 75 ppm): 29%; Tumor bearing rats, malignant (cancers), number ([1]; diet supplement 75 ppm): 3; Tumor bearing rats, malignant (cancers), {%} ([1]; diet supplement 75 ppm): 5%; Tumor bearing rats, total, number ([1]; diet supplement 75 ppm): 19; Tumor bearing rats, total, {%} ([1]; diet supplement 75 ppm): 34%; Tumor bearing rats, benign (adenoma) [2, 8]: 42; Tumor bearing rats, benign (microadenoma) [2, 8]: 25; Tumor bearing rats, malignant (cancers) [2, 8]: 8; Tumor bearing rats, total [2, 8]: 75; Tumor bearing rats, benign [3, 9]: 8; Tumor bearing rats, malignant [3, 9]: 2; Tumor bearing rats, total [3, 9]: 10; Tumor bearing rats, benign [3, 10]: 8; Tumor bearing rats, malignant [3, 10]: 1; Tumor bearing rats, total [3, 10]: 9
C[C@H](CCC(=O)O)[C@H]1CC[C@H]2[C@@H]3[C@@H](O)C[C@@H]4C[C@H](O)CC[C@]4(C)[C@H]3CC[C@]12C [Ursodiol, 3-α-7-β-dihydroxy-5-β-cholan-24-oic acid] | 10 | 22 | 0 {0} | 0 {0} % | 22 | 27 | 23 | 0 | 6 | 4 | 10 | 6 | 0 | 6 | 8 | 5 | 13 | 4 | 0 | 4 | Reduction of the number of growths from control ([1]; 0.4% in diet, total tumor bearing rats vs control): 50%; Reduction in growths that progressed to cancers ([1]; 0.4% in diet, vs control): 100%; Reduction in the number of tumors that still remained as adenomas ([1]; 0.4% in diet, vs control): 33%; Tumor bearing rats, total, number ([1]; diet supplement 0.4%): 10; Effect on incidence of malignancies and on number and size of non-cancerous or pre-cancerous growths ([2]; 0.4% in diet, in words): not only reduces the incidence of malignancies, but also reduces both the number and size of the non-cancerous or pre-cancerous growths; Tumor bearing rats, total ([2]; diet supplement 0.4%): 50; Effect in preventing the development of tumors at lower concentration ([3]; 0.2% in diet compared with 0.4%, in words): does not seem to be as strong as lower concentrations of ursodiol, i.e., 0.2%
